{"source": "patent US8815210B2", "about": "“Diagnostic composition comprising plasma cations having superior safety profile” (GE Healthcare AS, priority 2009, dated 2014)", "key": {"[1]": {"test": "Viscosity, calibrated U-tube technique", "assay_type": "physicochemical", "details": "320 mgI/ml, 20° C.", "protocol": "The viscosity of compound I was determined at 20° C. and 37° C. at three different concentrations. The viscosity at 320 mgI/ml and 20° C. is around 24 mPas.\nThe viscosity of Compound I was determined at two different temperatures, 20° C. and 37° C. and three different concentrations, 246, 295 and 313 mgI/ml. The test solutions were isotonic through adjustment of the osmolality with NaCl and had been sterilized by autoclavation. The density of the solutions was determined using a Density meter, DMA58 (Anton Paar). A calibrated U-tube technique was used, where the time of fall was used as a measure of dynamic viscosity. The viscosity of compound I was determined at 20° C. and 37° C. at three different concentrations. In comparison with Visipaque, the viscosity at 320 mgI/ml and 20° C. is similar, around 24 mPas."}, "[2]": {"test": "Osmolality, vapour pressure osmometer", "assay_type": "physicochemical", "details": "320 mgI/ml", "protocol": "The osmolality of Compound I was determined at four different concentrations, 204, 254, 310 and 324 mgI/ml. The osmolality of Compound I at 320 mgI/ml is 136 mOsm/kg.\nThe osmolality of Compound I was determined at four different concentrations, 204, 254, 310 and 324 mgI/ml. A Vapro 5520 vapour pressure osmometer from Vapro Inc. was used.\nThe osmolality of Compound I at 320 mgI/ml is lower than that of iodixanol, 136 mOsm/kg vs 210 mOsm/kg at 320 mgI/ml."}, "[3]": {"tested_on": "normal pigs", "test": "Haemodynamic effects after fast LAD injection in normal pigs (Example 2c)", "assay_type": "in vivo, pig", "details": "40 ml at 5 ml/sec into LAD; Compound I in composition with 45 mM NaCl and 0.5 mM CaCl2", "protocol": "FIG. 6 a) and b) depicts the effect on cardiovascular parameters following injection of 40 ml (5 ml/sec) of Ringer Lactate, Compound I, Visipaque or Iopamidol to the LAD of normal pigs.\nIn a further study the haemodynamic effects of Compound I in a composition with 45 mM NaCl and 0.5 mM CaCl2 was compared to Visipaque and Iopamidol following selective administration to the LAD of normal pigs with a fast injection rate (5 ml/sec). Ringer Lactate was also studied as a volume and electrolyte “ratio” control. In total 3 pigs were studied, and each CM was administered twice to each pig in random order. The injection rate used was 5 ml/sec with a total injection volume of 40 ml."}, "[4]": {"tested_on": "CD25^+-depleted peripheral blood mononuclear cells", "test": "In vitro T cell proliferation model", "assay_type": "cell-based", "details": "2 and 5 mg I/mL, 100 donors, positive response stimulation index ≧1.9", "protocol": "Generally, iodinated contrast media may cause late hypersensitivity reactions in susceptible patients from 1 hour to several days after exposure. These reactions are mainly non-serious skin eruptions such as macular, maculopapular and urticaria-like eruptions. Contrast media-induced delayed adverse reactions (DARs) such as skin eruptions appear to be caused by contrast media-reactive T cells that, upon recognizing the contrast media, proliferate and subsequently orchestrate an inflammatory reaction in the skin. The applicant has evaluated an in vitro T cell proliferation model designed to predict the relative frequency with which contrast media, such as Compound I, will cause late skin reactions in patients post-intravascular administration. Two contrast media, iodixanol and iohexol, with known rates of delayed skin reactions, and the new contrast medium, Compound I, was screened (2 and 5 mg I/mL) for in vitro T cell proliferation in CD25^+-depleted peripheral blood mononuclear cells from 100 donors representing world population HLA-DR frequencies. Positive T cell responses were evaluated according to published protocols and stimulation index values (positive response≧1.9). In vitro toxicity was tested by measuring cell viability of the first 10 donor samples incubated with test contrast media (5 mg I/mL). The results were that all major HLA-DR allotypes were represented with a frequency equivalent to the world population. No contrast media tested appeared to have a meaningful effect on cell viability. […] For iodixanol and iohexol, T cell proliferation responses for most donors occurred on days 7 and 8; statistical significance favored a reduced proliferation response to Compound I on day 8. In conclusions the model successfully established the relative frequency with which contrast media caused in vitro T cell activation. The results correlated with reported frequency of late skin reactions with two marketed contrast media and identified a lower frequency for Compound I."}}, "note": "Entries after “also recorded” stand apart in the source; their conditions may differ.", "data": [{"molecule": "O=CN(CC(O)CN(C=O)c1c(I)c(C(=O)NCC(O)CO)c(I)c(C(=O)NCC(O)CO)c1I)c1c(I)c(C(=O)NCC(O)CO)c(I)c(C(=O)NCC(O)CO)c1I", "note": "(stereo not shown) [Compound I, 5-[formyl-[3-[formyl-[3,5-bis(2,3-dihydroxypropylcarbamoyl)-2,4,6-triiodophenyl]amino]-2-hydroxypropyl]amino]-N,N′-bis(2,3-dihydroxypropyl)-2,4,6-triiodobenzene-1,3-dicarboxamide]", "values": [{"measurement": "viscosity", "setting": "[1]", "result": "around 24 mPas"}, {"measurement": "osmolality", "setting": "[2]", "result": 136, "unit": "mOsm/kg"}, {"measurement": "increase in LVSP from baseline", "setting": "[3]", "result": "~5", "unit": "%"}, {"measurement": "positive T cell proliferation donor samples", "setting": "[4]", "result": "fewer positive T cell proliferation donor samples compared with iodixanol and iohexol; also recorded: lowest capacity for stimulating in vitro T cell proliferation"}]}]}
